Assays:
[1] = Pharmacokinetic profile in mice after oral gavage; format: in vivo, mouse; conditions: mouse; fasted male Hilltop mice, 10 mg/kg oral gavage, plasma; read-out: Cmax
How it was run: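 Fasted 8-week male Hilltop mice given 10 mg/kg orally in 20% PEG400/80% 0.5% CMC + 0.25% Tween-80. EDTA plasma sampled 0-4 h, measured by LC-MS/MS (MRM, positive ion); Cmax and AUC derived non-compartmentally, values being means of three mice.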

mouse TGR5 receptor = target: T1, mouse TGR5 receptor (Mus musculus, UniProt Q80SS6); assay: Mouse TGR5 HTRF cAMP production assay (HEK293-EBNA cells, Cisbio cAMP HiRange kit); format: cell-based; conditions: HEK293-EBNA cells overexpressing mouse TGR5, HTRF cAMP assay
T1 construct: host or cells: HEK293-EBNA (293 c18, ATCC CRL10852)
T1 sequence (Q80SS6 1-329): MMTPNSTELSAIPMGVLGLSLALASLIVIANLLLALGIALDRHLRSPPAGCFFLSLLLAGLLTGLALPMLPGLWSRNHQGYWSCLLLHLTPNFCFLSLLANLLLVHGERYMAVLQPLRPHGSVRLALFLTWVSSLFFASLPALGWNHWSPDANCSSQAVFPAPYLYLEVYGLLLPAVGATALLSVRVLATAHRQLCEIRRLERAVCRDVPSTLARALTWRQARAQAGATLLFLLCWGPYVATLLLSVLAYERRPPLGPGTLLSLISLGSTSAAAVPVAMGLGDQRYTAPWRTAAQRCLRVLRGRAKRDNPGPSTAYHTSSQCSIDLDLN
How it was run: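 HEK293-EBNA cells stably expressing mouse TGR5 (episomal vector) were suspended in serum-free DMEM with 500 μM IBMX and exposed to 12-point half-log compound dilutions for 1 h at room temperature. cAMP was detected by HTRF (d2-cAMP/anti-cAMP cryptate, 1 h, room temperature), giving EC50 from duplicates.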

SMILES	Cmax [1] [ng/mL]	EC50 (mouse TGR5 receptor) [nM]
N#Cc1ccc(CCNC(=O)[C@@H]2CCCN2c2cc(N3CCC(CCNc4c(NCCC(=O)O)c(=O)c4=O)CC3)nc(C(F)(F)F)n2)cc1 [Compound 368, (S)-3-((2-((2-(1-(6-(2-((4-cyanophenethyl)carbamoyl)pyrrolidin-1-yl)-2-(trifluoromethyl)pyrimidin-4-yl)piperidin-4-yl)ethyl)amino)-3,4-dioxocyclobut-1-en-1-yl)amino)propanoic acid]	2.5	< 100
N#Cc1ccc(CCNC(=O)[C@@H]2CCN2c2cc(N3CCC(CCNC(=O)NCCOCCNC(=O)CS(=O)(=O)O)CC3)nc(C(F)(F)F)n2)cc1 [Compound 356, (S)-1-(1-(6-(2-((4-cyanophenethyl)carbamoyl)azetidin-1-yl)-2-(trifluoromethyl)pyrimidin-4-yl)piperidin-4-yl)-4,12-dioxo-8-oxa-3,5,11-triazatridecane-13-sulfonic acid]	8.4	< 100
O=C(O)CCCC1CCN(c2cc(N3CCC[C@@H](C(=O)NCCc4ccc(C(F)(F)F)cc4)C3)nc(C(F)(F)F)n2)CC1 [Compound 330, (R)-4-(1-(2-(trifluoromethyl)-6-(3-((4-(trifluoromethyl)phenethyl)carbamoyl)piperidin-1-yl)pyrimidin-4-yl)piperidin-4-yl)butanoic acid]	20	< 100
N#Cc1ccc(CCNC(=O)[C@@H]2CCN2c2cc(N3CCC(CO)CC3)nc(C(F)(F)F)n2)cc1 [Compound 219, (S)—N-(4-cyanophenethyl)-1-(6-(4-(hydroxymethyl)piperidin-1-yl)-2-(trifluoromethyl)pyrimidin-4-yl)azetidine-2-carboxamide]	75	
N#Cc1ccc(CCNC(=O)[C@@H]2CCCN(c3cc(N4CCC(CCNC(=O)NCCC(=O)O)CC4)nc(C(F)(F)F)n3)C2)cc1 [Compound 347, (R)-3-(3-(2-(1-(6-(3-((4-cyanophenethyl)carbamoyl)piperidin-1-yl)-2-(trifluoromethyl)pyrimidin-4-yl)piperidin-4-yl)ethyl)ureido)propanoic acid]	30	< 100
CN(C)CCC1CCN(c2cc(N3CCC[C@H]3C(=O)NCCc3ccc(C(F)(F)F)cc3)nc(C(F)(F)F)n2)CC1 [Compound 5]	338	< 100
O=C(O)CCCC1CCN(c2cc(N3CCC[C@H]3C(=O)NCCc3ccc(C(F)(F)F)cc3)nc(C(F)(F)F)n2)CC1 [Compound 9]	48	< 100
N#Cc1ccc(CCNC(=O)[C@@H]2CCCN2c2cc(N3CCC(OCC#CCS(=O)(=O)O)CC3)nc(C(F)(F)F)n2)cc1 [Compound 134, (S)-4-((1-(6-(2-((4-cyanophenethyl)carbamoyl)pyrrolidin-1-yl)-2-(trifluoromethyl)pyrimidin-4-yl)piperidin-4-yl)oxy)but-2-yne-1-sulfonic acid]	22	< 100
N#Cc1ccc(CCNC(=O)[C@@H]2CCN2c2cc(N3CCC(CCNC(=O)NCCOCCNC(=O)NCCS(=O)(=O)O)CC3)nc(C(F)(F)F)n2)cc1 [Compound 358, (S)-15-(1-(6-(2-((4-cyanophenethyl)carbamoyl)azetidin-1-yl)-2-(trifluoromethyl)pyrimidin-4-yl)piperidin-4-yl)-4,12-dioxo-8-oxa-3,5,11,13-tetraazapentadecane-1-sulfonic acid]	3.4	< 100
N#Cc1ccc(CCNC(=O)[C@@H]2CCCN(c3cc(N4CCC(CO)CC4)nc(C(F)(F)F)n3)C2)cc1 [Compound 308, (R)—N-(4-cyanophenethyl)-1-(6-(4-(hydroxymethyl)piperidin-1-yl)-2-(trifluoromethyl)pyrimidin-4-yl)piperidine-3-carboxamide]	18	
COc1cc(C(F)(F)F)ccc1CCNC(=O)[C@@H]1CCCN1c1cc(N2CCC(CCCC(=O)O)CC2)nc(C(F)(F)F)n1 [Compound 34]	31	< 100
COc1cc(C(F)(F)F)ccc1CCNC(=O)[C@@H]1CCN1c1cc(N2CCC(CCC(=O)NCCS(=O)(=O)O)CC2)nc(C(F)(F)F)n1 [Compound 259]	27	< 100
COCC1CCN(c2cc(N3CCC[C@H]3C(=O)NCCc3ccc(C#N)cc3)nc(C(F)(F)F)n2)CC1 [Compound 24]	970	

Next, values leading:

Cmax [1] [ng/mL]	EC50 (mouse TGR5 receptor) [nM]	SMILES
1.1	< 100	N#Cc1ccc(CCNC(=O)[C@@H]2CCCN2c2cc(N3CCC(CCCC(=O)NCCNc4ncc(C(=O)NCCS(=O)(=O)O)cn4)CC3)nc(C(F)(F)F)n2)cc1 [Compound 112, (S)-2-(2-((2-(4-(1-(6-(2-((4-cyanophenethyl)carbamoyl)pyrrolidin-1-yl)-2-(trifluoromethyl)pyrimidin-4-yl)piperidin-4-yl)butanamido)ethyl)amino)-pyrimidine-5-carboxamido)ethanesulfonic acid]
0.9	< 100	N#Cc1ccc(CCNC(=O)[C@@H]2CCN2c2cc(N3CCC(CCNC(=N)N)CC3)nc(C(F)(F)F)n2)cc1 [Compound 285, (S)-N-(4-cyanophenethyl)-1-(6-(4-(2-guanidinoethyl)piperidin-1-yl)-2-(trifluoromethyl)pyrimidin-4-yl)azetidine-2-carboxamide]
75	< 100	N#Cc1ccc(CCNC(=O)[C@@H]2CCCN2c2cc(N3CCC(CCC(=O)O)CC3)nc(C(F)(F)F)n2)cc1 [Compound 28]
33	< 100	N#Cc1ccc(CCNC(=O)[C@@H]2CCCN2c2cc(N3CCC(CCCC(=O)NCCS(N)(=O)=O)CC3)nc(C(F)(F)F)n2)cc1 [Compound 62, (S)-N-(4-cyanophenethyl)-1-(6-(4-(4-oxo-4-((2-sulfamoylethyl)amino)butyl)piperidin-1-yl)-2-(trifluoromethyl)pyrimidin-4-yl)pyrrolidine-2-carboxamide]
43	< 100	NS(=O)(=O)CCNC(=O)CCCC1CCN(c2cc(N3CCC[C@H]3C(=O)NCCc3ccc(C(F)(F)F)cc3)nc(C(F)(F)F)n2)CC1 [Compound 59, (S)-1-(6-(4-(4-oxo-4-((2-sulfamoylethyl)amino)butyl)piperidin-1-yl)-2-(trifluoromethyl)pyrimidin-4-yl)-N-(4-(trifluoromethyl)phenethyl)-pyrrolidine-2-carboxamide]
4.8	< 100	O=C(O)CNS(=O)(=O)CCNC(=O)CCCC1CCN(c2cc(N3CCC[C@H]3C(=O)NCCc3ccc(C(F)(F)F)cc3)nc(C(F)(F)F)n2)CC1 [Compound 114, (S)-2-(2-(4-(1-(2-(trifluoromethyl)-6-(2-((4-(trifluoromethyl)phenethyl)-carbamoyl)-pyrrolidin-1-yl)pyrimidin-4-yl)piperidin-4-yl)butanamido)ethyl-sulfonamido)acetic acid]
9.3	< 100	N#Cc1ccc(CCNC(=O)[C@@H]2CCCN2c2cc(N3CCC(CCCC(=O)NCC(=O)O)CC3)nc(C(F)(F)F)n2)cc1 [Compound 103, (S)-2-(4-(1-(6-(2-((4-cyanophenethyl)carbamoyl)pyrrolidin-1-yl)-2-(trifluoromethyl)pyrimidin-4-yl)piperidin-4-yl)butanamido)acetic acid]
0.6	< 100	N#Cc1ccc(CCNC(=O)[C@@H]2CCCN2c2cc(N3CCC(CCCC(=O)NCCCC[C@H](NC(=N)N)C(=O)O)CC3)nc(C(F)(F)F)n2)cc1 [Compound 129, (S)-6-(4-(1-(6-((S)-2-((4-cyanophenethyl)carbamoyl)pyrrolidin-1-yl)-2-(trifluoromethyl)pyrimidin-4-yl)piperidin-4-yl)butanamido)-2-guanidinohexanoic acid]
670	< 100	N#Cc1ccc(CCNC(=O)[C@@H]2CCCN2c2cc(N3CCC(CCCC(=O)NCCNC(=N)N)CC3)nc(C(F)(F)F)n2)cc1 [Compound 128, (S)-N-(4-cyanophenethyl)-1-(6-(4-(4-((2-guanidinoethyl)amino)-4-oxobutyl)piperidin-1-yl)-2-(trifluoromethyl)pyrimidin-4-yl)pyrrolidine-2-carboxamide]
2	< 100	N#Cc1ccc(CCNC(=O)[C@@H]2CCCN2c2cc(N3CCC(CCNC(=N)N)CC3)nc(C(F)(F)F)n2)cc1 [Compound 126, (S)—N-(4-cyanophenethyl)-1-(6-(4-(2-guanidinoethyl)piperidin-1-yl)-2-(trifluoromethyl)pyrimidin-4-yl)pyrrolidine-2-carboxamide]
235	< 100	N#Cc1ccc(CCNC(=O)[C@@H]2CCCN2c2cc(N3CCC(CCCNC(=O)NCC(=O)O)CC3)nc(C(F)(F)F)n2)cc1 [Compound 121, (S)-2-(3-(3-(1-(6-(2-((4-cyanophenethyl)carbamoyl)pyrrolidin-1-yl)-2-(trifluoromethyl)pyrimidin-4-yl)piperidin-4-yl)propyl)ureido)acetic acid]
214		N#Cc1ccc(CCNC(=O)[C@@H]2CCCN2c2cc(N3CCC(CCN)CC3)nc(C(F)(F)F)n2)cc1 [Compound 50, (S)-1-(6-(4-(2-aminoethyl)piperidin-1-yl)-2-(trifluoromethyl)pyrimidin-4-yl)-N-(4-cyanophenethyl)pyrrolidine-2-carboxamide]
171		N#Cc1ccc(CCNC(=O)[C@@H]2CCCN2c2cc(N3CCC(CCO)CC3)nc(C(F)(F)F)n2)cc1 [Compound 22]

— patent publication US10654834B2 (Venenum Biodesign, LLC, priority 2016, dated 2020)
